Measurements: article PMC8390788 (Bioscience Reports, 2021)
“Also recorded” adds a separate entry of the source. No end group written: not given here.

Legend:
[1] = Enzymatic stability in murine plasma; format: in vitro ADME; details: 37°C, HPLC separation, MS analysis, percentage from peak areas; for remaining at 2 h / remaining at 4 h / remaining at 8 h: mouse; for remaining at 2 h: 2-h incubation, read-out: Percentage intact peptide remaining (%) 2 h; for remaining at 4 h / Percentage intact peptide remaining (%) 4 h: 4-h incubation; for remaining at 4 h: read-out: Percentage intact peptide remaining (%) 4 h; for remaining at 8 h / Percentage intact peptide remaining (%) 8 h: 8-h incubation; for remaining at 8 h: read-out: Percentage intact peptide remaining (%) 8 h
Protocol: When incubated together with murine plasma, Ac-NT/XN-8-Gln remained 100% intact up to and including 4 h, and over 90% peptide intact over an extended 8-h incubation period (Table 1).

BRIN-BD11 β-cells = experiment: β-cell proliferation, Ki-67 immunostaining; format: cell-based; details: 18 h, 10^−8 and 10^−6 M, n=3–4, vs media control (Figure 2A)
Protocol: BRIN-BD11 β-cells were used to investigate effects of test peptides (10^−8 and 10^−6 M) on β-cell proliferation and protection against apoptosis. GLP-1 was employed as a positive control for all studies. Ki-67 immunostaining was used to assess effects on proliferation. Briefly, cells were seeded on to coverslips (40000 cells per coverslip) and cultured overnight (18 h; 37°C), in the presence of test peptides (10^−8 and 10^−6 M). Cells were then washed with PBS, and fixed using 4% paraformaldehyde. Following antigen retrieval with citrate buffer (90°C for 20 min), tissues were blocked using 1.1% BSA for 30 min. Cells were then incubated with Ki-67 primary antibody (1:500; Abcam, ab15580), followed by Alexa Fluor® 488 secondary antibody (1:400, Invitrogen, A-11008). Coverslips were washed with PBS, mounted on slides for viewing using a fluorescent microscope (Olympus System Microscope) and photographed by DP70 camera adapter system. Proliferation frequency was expressed as percentage of total cells analysed. For analysis of the ability of test peptides (10^−8 and 10^−6 M) to protect against apoptosis, cells were seeded as above, but apoptosis evoked through activation of caspase 3 and 7 activity by a luminogenic, tetrapeptide sequence DEVD Caspase-Glo® 3/7 substrate. Caspase induced cleavage of the substrate was then assessed by an ApoLive-Glow™ Multiplex assay kit, according to the protocol provided by the manufacturer (Promega, Wisconsin, U.S.A.).
(A) Proliferation was measured using Ki-67 immunocytochemistry. (B) Caspase-3/7 activation was detected by luminescence.

BRIN-BD11 cells = experiment: In vitro insulin secretion from BRIN-BD11 cells (radioimmunoassay); format: cell-based; details: 20 min; for Effect on glucose-stimulated insulin secretion: 16.7 mM glucose, n=8 (Figure 1B); for Effect on GIP-induced insulin secretion: with 10^−7 M GIP, 5.6 mM glucose, n=8 (Figure 1C); for Effect on GLP-1 evoked insulin release: with 10^−7 M GLP-1, 5.6 mM glucose, n=8 (Figure 1D)
Protocol: The in vitro insulin secretory activity of test peptides was examined in BRIN-BD11 cells, cultured and maintained as previously described. For experimentation, BRIN-BD11 cells were seeded in 24-well plates at a cell density of 150000 cells/well, and allowed to attach overnight at 37°C. Following pre-incubation with Krebs–Ringer bicarbonate buffer (KRBB) (pH 7.4) supplemented with 0.5% (w/v) BSA and 1.1 mM glucose (40 min; 37°C), cells were then incubated with test peptides alone (10^−6–10^−12 M), or in combination with either GIP or GLP-1 (10^−7 M), at 5.6 or 16.7 mM glucose, as appropriate for 20 min. […] Aliquots of assay buffer (200 μl) were collected and stored at −20°C prior to assessment of insulin concentrations by an in-house radioimmunoassay. To confirm insulin secretory activity of Ac-NT/XN-8-Gln, pancreatic islets were isolated from lean C57BL/6 mice by collagenase digestion, as described previously and insulin secretion determined as outlined above (16.7 mM glucose), but over a 60-min test incubation period.
Figure 1 Acute effects of acetyl-neurotensin(8-13), xenin-8-Gln, Ac-NT/XN-8-Gln alone and in combination with GIP or GLP-1, on insulin release from BRIN-BD11 cells and isolated mouse islets BRIN-BD11 cells were incubated (20 min) with a range of concentrations (10^−12 to 10^−6 M) of acetyl-neurotensin(8-13), xenin-8-Gln or Ac-NT/XN-8-Gln alone (A,B) or in combination with GIP (C) or GLP-1 (D) in the presence of (A,C,D) 5.6 or (B) 16.7 mM glucose. (E) Murine islets were incubated (60 min) with Ac-NT/XN-8-Gln (10^−8 and 10^−6 M) in the presence 16.7 mM glucose. (A–E) Insulin release was measured using radioimmunoassay. Values represent means ± SEM (n=8 for (A–D) and n=5 for (E)). *P<0.05 and ***P<0.001 compared with respective glucose controls. ^∆P<0.05, ^∆∆P<0.01 and ^∆∆∆P<0.001 compared with respective 10^−7 M GIP or GLP-1 control.

isolated mouse islets = experiment: Insulin secretion from isolated mouse islets; format: cell-based, C57BL/6 mice; details: 16.7 mM glucose, 60 min, peptide 10^−8 and 10^−6 M, n=5 (Figure 1E)
Protocol: The in vitro insulin secretory activity of test peptides was examined in BRIN-BD11 cells, cultured and maintained as previously described. For experimentation, BRIN-BD11 cells were seeded in 24-well plates at a cell density of 150000 cells/well, and allowed to attach overnight at 37°C. Following pre-incubation with Krebs–Ringer bicarbonate buffer (KRBB) (pH 7.4) supplemented with 0.5% (w/v) BSA and 1.1 mM glucose (40 min; 37°C), cells were then incubated with test peptides alone (10^−6–10^−12 M), or in combination with either GIP or GLP-1 (10^−7 M), at 5.6 or 16.7 mM glucose, as appropriate for 20 min. […] To confirm insulin secretory activity of Ac-NT/XN-8-Gln, pancreatic islets were isolated from lean C57BL/6 mice by collagenase digestion, as described previously and insulin secretion determined as outlined above (16.7 mM glucose), but over a 60-min test incubation period.
Figure 1 Acute effects of acetyl-neurotensin(8-13), xenin-8-Gln, Ac-NT/XN-8-Gln alone and in combination with GIP or GLP-1, on insulin release from BRIN-BD11 cells and isolated mouse islets BRIN-BD11 cells were incubated (20 min) with a range of concentrations (10^−12 to 10^−6 M) of acetyl-neurotensin(8-13), xenin-8-Gln or Ac-NT/XN-8-Gln alone (A,B) or in combination with GIP (C) or GLP-1 (D) in the presence of (A,C,D) 5.6 or (B) 16.7 mM glucose. […] (A–E) Insulin release was measured using radioimmunoassay. […]

| remaining at 2 h [1] [%] | remaining at 4 h [1] [%] | remaining at 8 h [1] [%] | Percentage intact peptide remaining (%) 8 h [1] | Compound | β-cell proliferation (Ki-67) (BRIN-BD11 β-cells) | Effect on glucose-stimulated insulin secretion (BRIN-BD11 cells) | Effect on GIP-induced insulin secretion (BRIN-BD11 cells) | Effect on GLP-1 evoked insulin release (BRIN-BD11 cells) | Percentage intact peptide remaining (%) 4 h [1] | Insulin release from isolated mouse islets (isolated mouse islets) |
| --- | --- | --- | --- | --- | --- | --- | --- | --- | --- | --- |
| 98.2 | 94.4 | 89.6 | – | CC[C@H](C)[C@H](NC(=O)[C@H](Cc1ccc(O)cc1)NC(=O)[C@@H]1CCCN1C(=O)[C@H](CCCNC(=N)N)NC(=O)[C@H](CCCNC(=N)N)NC(C)=O)C(=O)N[C@@H](CC(C)C)C(=O)O [Acetyl-neurotensin(8-13)] | augmented | inhibited | no effect | inhibit | – | – |
| 100 | – | 91.7 | over 90% | Ac-RRPYILHPQQPWIL [Ac-NT/XN-8-Gln] | augmented | – | augmented; also recorded: similar, but more prominent, bioactivity profile | perturb | 100% | Prominent (P<0.01) insulinotropic actions |
| 100 | 98.3 | – | 94.1% | HPQQPWIL [Xenin-8-Gln] | devoid of benefits | retained significant insulinotropic actions | augmented | no impact | – | – |
| – | – | – | – | glucagon-like peptide-1 [Native GLP-1] | – | – | – | – | fully degraded | – |
